These results are taken from article PMC10720383, “Acetylcholinesterase Inhibition in Rats and Humans Following Acute Fenitrothion Exposure Predicted by Physiologically Based Kinetic Modeling-Facilitated Quantitative In Vitro to In Vivo Extrapolation” (Environmental Science & Technology, 2023).

Read-outs that look alike come from different tables or passages of the source.

Data set [1] concerns the target T1, PON1 (Homo sapiens, UniProt P27169).
T1 construct: gender-mixed liver microsomes or plasma from rats and humans; tissue BioIVT (West Sussex, UK); host or cells: human plasma pooled from 25 donors, mixed gender
Description: in vitro. It counts as in vitro ADME. The conditions noted are these: both sexes, pH 7.4, gender-mixed. The method, then:
(§1) In vitro incubations were performed to obtain kinetic parameters for the CYP450s-catalyzed conversion of FNT to FNO and MNP using gender-mixed rat and human liver microsomes. For the PON1-dominated detoxification of FNO to MNP, in vitro incubations were conducted with gender-mixed liver microsomes or plasma from rats and humans. Sample extraction with diisopropyl ether was performed before UPLC-PDA analysis. More details on in vitro incubations, sample extraction, UPLC-PDA analysis, and calculation of kinetic parameters are provided in the Supporting Information. […]
(§2) All incubations were performed in triplicate.
(§3) In vitro incubations for metabolic conversions of FNO
(§4) Incubations with liver microsomes and plasma were performed to obtain kinetic parameters for PON1-mediated detoxification of FNO to MNP based on a modified method (Zhao et al. 2021). Incubation conditions that were suitable for linearity with respect to time and microsomal protein or plasma protein concentration were defined (data not shown). The final incubation mixtures with a total volume of 200 µL contained 50 mM Tris-HCl (pH 7.4), 2 mM CaCl2 as PON1 activity simulator, and FNO at final concentrations ranging from 25 to 5000 µM (added from 100 times concentrated stock solutions in acetonitrile). Controls differed from test incubations by the absence of liver microsomes or plasma, which was replaced with Tris-HCl. After 1-min pre-incubation in a 37°C water bath, 2 µL rat or 10 µL human liver microsomes (final concentration 0.2 and 1 mg microsomal protein/mL for rat and human samples, respectively) was added to initiate the reaction. For the plasma incubations, 4 µL of rat plasma or 10 µL human plasma (final concentration 1.2 and 3.3 mg plasma protein/mL for rat and human samples, respectively) was used. Reactions were terminated after incubating 10 min for rat samples or 20 min for human samples by adding 20 µL ice-cold HClO4 (10%, v/v), and samples were kept on ice until further extraction. All incubations were performed in triplicate.
(§5) DIPE extraction of FNT and its metabolites (Zhao et al. 2019; Wang et al. 2022) was performed before UPLC analysis. […]
(§6) Finally, the obtained residue was redissolved in 100 μL methanol, and subsequently analyzed with […]
(§7) The quantification of FNT, FNO and MNP was conducted using a Shimadzu Nexera X2 liquid chromatography system (LC-30AD, Kyoto, Japan), connected with a photodiode array detector (SPD-M30A, Shimadzu, Kyoto, Japan). […]
(§8) temperature at 10°C during analysis. […] Quantification of FNT and FNO was performed by integrating peak areas at 269 nm and for MNP at 315 nm using calibration curves (r2 > 0.99) prepared with commercial standards. The limit of quantification was 0.1 µM for FNT, FNO and MNP when using an injection volume of 20 µL. […]

Data set [2] deals with T2, PON1 (Rattus norvegicus, UniProt P55159).
T2 construct: gender-mixed liver microsomes or plasma from rats and humans; tissue Corning (male) and Sigma-Aldrich (female), pooled; host or cells: Sprague-Dawley rat liver microsomes, gender-mixed
The experiment in a line: in vitro. Particulars: both sexes, Sprague-Dawley, pH 7.4, gender-mixed. It counts as in vitro ADME. The method, then: as §1, §2, §3, §4, §5, §6, §7, §8

For data set [3] the following is noted: rats, oral exposure; cited from earlier work.
Data set [4] deals with erythrocyte AChE. The experiment in a line: PBK modeling-facilitated QIVIVE and BMD analysis, rat. The conditions noted are these: erythrocyte AChE inhibition, acute oral FNT exposure. Here is the method:
For toxicity prediction, the maximum blood FNO concentration was used as a dose metric relating AChE inhibition to acute FNT exposure (see section 3.3). Since the in vitro AChE inhibition under increasing FNO concentrations was tested in rat and human blood, these nominal concentrations could be used directly as the biological effective concentrations (in vivo maximum blood FNO concentrations), and no extra correction for differences in in vitro and in vivo protein binding was deemed necessary. Then the corresponding FNT dose levels resulting in these in vivo concentrations were derived via PBK modeling-facilitated reverse dosimetry. In doing so, the in vitro concentration–response relationship was converted to the predicted in vivo dose-dependent erythrocyte AChE inhibition, which was then compared to available in vivo toxicity data in rats and humans.[8],[39]
BMD modeling was used to derive POD values from the predicted in vivo dose-dependent data sets for rats and humans. A BMD value resulting in a 10% benchmark response (BMR) change with lower 95% confidence limit was defined as BMDL10, and the obtained values for rats and humans were evaluated against the reported NOAELs.[1],[11]−[13] Details and results of BMD analysis are provided in the Supporting Information. […]
BMD modeling was used to derive POD values from the predicted in vivo dose-response curves for rats and humans. […]

T1 sequence (P27169 whole entry): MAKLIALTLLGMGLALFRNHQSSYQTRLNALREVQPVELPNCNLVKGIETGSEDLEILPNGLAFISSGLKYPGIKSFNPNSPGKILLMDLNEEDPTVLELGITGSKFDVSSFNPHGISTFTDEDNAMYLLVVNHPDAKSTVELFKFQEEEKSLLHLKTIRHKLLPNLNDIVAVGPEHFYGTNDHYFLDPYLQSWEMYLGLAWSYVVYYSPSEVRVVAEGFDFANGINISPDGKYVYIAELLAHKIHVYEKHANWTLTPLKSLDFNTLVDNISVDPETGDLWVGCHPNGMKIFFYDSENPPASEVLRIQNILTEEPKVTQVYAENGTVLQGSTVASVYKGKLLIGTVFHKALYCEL
T2 sequence (P55159 whole entry): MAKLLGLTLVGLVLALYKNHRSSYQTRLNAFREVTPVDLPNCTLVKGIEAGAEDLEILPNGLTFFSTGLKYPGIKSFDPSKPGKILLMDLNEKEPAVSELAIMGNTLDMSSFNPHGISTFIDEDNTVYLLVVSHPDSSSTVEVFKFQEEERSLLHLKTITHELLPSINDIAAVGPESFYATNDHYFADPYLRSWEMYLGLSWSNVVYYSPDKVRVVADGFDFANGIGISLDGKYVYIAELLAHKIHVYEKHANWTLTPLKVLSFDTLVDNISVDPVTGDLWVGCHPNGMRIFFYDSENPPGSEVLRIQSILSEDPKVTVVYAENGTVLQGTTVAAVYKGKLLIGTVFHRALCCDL

The Km is the concentration of substrate that gives half-maximal velocity. As to `COP(=O)(OC)Oc1ccc([N+](=O)[O-])c(C)c1` [FNO, fenitrooxon], the Km was determined as 12.6 mM in data set [1] (human liver microsomes, read-out: Km, FNO to MNP (PON1-catalyzed), liver); 5.49 mM in data set [1] (human plasma, read-out: Km, FNO to MNP (PON1-catalyzed), plasma); 4.53 mM in data set [2] (rat liver microsomes, read-out: Km, FNO to MNP (PON1-catalyzed), liver); 4.08 mM in data set [2] (rat plasma, read-out: Km, FNO to MNP (PON1-catalyzed), plasma).
As to `COP(=S)(OC)Oc1ccc([N+](=O)[O-])c(C)c1` [FNT, O,O-dimethyl O-4-nitro-m-tolyl phosphorothioate], the “fraction of the dose absorbed (Fa)” value in data set [3] was 0.9. Also, the “predicted BMDL10 (POD)” value in data set [4] (10% BMR, lower 95% confidence limit) is listed as 1.30 mg/kg BW. In data set [4] (upper confidence limit), this compound showed a BMDU10 of 1.71 mg/kg BW.
